# Source: patent EP0730590B1, “ISOXAZOLINE AND ISOXAZOLE FIBRINOGEN RECEPTOR ANTAGONISTS” (Dupont Pharmaceuticals Company, priority 1993, dated 1995)
# Target: agonist-induced platelet aggregation (Homo sapiens, UniProt P05106+P08514)
# Assay: Platelet Aggregation Assay in platelet-rich plasma (PRP)
# Format: cell-based
# Settings: without esterase
# Protocol: Platelet Aggregation Assay: Venous blood was obtained from the arm of a healthy human donor who was drug-free and aspirin-free for at least two weeks prior to blood collection. Blood was collected into 10 ml citrated Vacutainer tubes. The blood was centrifuged for 15 minutes at 150 x g at room temperature, and platelet-rich plasma (PRP) was removed. The remaining blood was centrifuged for 15 minutes at 1500 x g at room temperature, and platelet-poor plasma (PPP) was removed. Samples were assayed on a aggregometer (PAP-4 Platelet Aggregation Profiler), using PPP as the blank (100% transmittance). 200 µl of PRP was added to each micro test tube, and transmittance was set to 0%. 20 µ of various agonists (ADP, collagen, arachidonate, epinephrine, thrombin) were added to each tube, and the aggregation profiles were plotted (% transmittance versus time). The results are expressed as % inhibition of agonist-induced platelet aggregation. For the IC50 evaluation, the test compounds were added at various concentrations prior to the activation of the platelets.
# Table A below sets forth the antiplatelet activity of representative compounds of the present invention. The indicated compounds were tested for their ability to inhibit platelet aggregation (using platelet rich plasma (PRP)). […]
# Sequence of agonist-induced platelet aggregation (P08514 with tags, fused parts or gaps): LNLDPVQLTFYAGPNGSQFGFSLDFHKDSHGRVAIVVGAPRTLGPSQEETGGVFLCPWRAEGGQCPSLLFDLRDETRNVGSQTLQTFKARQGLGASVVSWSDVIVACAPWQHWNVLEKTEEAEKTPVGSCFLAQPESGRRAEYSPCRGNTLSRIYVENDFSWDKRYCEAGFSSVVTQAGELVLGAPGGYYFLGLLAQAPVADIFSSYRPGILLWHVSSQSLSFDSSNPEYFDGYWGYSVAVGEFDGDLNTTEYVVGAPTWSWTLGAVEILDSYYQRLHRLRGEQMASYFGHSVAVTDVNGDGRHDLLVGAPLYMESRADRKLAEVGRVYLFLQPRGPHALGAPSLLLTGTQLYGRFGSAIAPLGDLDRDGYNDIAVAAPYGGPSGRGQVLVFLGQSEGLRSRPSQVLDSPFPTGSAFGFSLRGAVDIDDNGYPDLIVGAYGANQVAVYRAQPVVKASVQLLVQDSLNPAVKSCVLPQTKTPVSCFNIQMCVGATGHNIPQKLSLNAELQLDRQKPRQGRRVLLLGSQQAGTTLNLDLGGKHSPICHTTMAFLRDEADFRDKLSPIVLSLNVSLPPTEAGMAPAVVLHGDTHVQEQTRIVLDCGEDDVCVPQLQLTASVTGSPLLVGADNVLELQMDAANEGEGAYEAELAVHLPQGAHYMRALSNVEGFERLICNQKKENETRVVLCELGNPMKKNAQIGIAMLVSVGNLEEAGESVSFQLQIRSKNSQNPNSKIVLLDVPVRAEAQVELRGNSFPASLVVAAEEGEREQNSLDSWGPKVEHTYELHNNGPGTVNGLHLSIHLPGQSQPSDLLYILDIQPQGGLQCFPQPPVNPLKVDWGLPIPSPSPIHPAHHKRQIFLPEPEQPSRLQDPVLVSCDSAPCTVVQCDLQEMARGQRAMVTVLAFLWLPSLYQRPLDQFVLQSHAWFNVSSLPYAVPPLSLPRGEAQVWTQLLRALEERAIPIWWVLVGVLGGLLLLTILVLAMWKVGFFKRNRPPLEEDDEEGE
# Sequence of agonist-induced platelet aggregation (P05106 27-788): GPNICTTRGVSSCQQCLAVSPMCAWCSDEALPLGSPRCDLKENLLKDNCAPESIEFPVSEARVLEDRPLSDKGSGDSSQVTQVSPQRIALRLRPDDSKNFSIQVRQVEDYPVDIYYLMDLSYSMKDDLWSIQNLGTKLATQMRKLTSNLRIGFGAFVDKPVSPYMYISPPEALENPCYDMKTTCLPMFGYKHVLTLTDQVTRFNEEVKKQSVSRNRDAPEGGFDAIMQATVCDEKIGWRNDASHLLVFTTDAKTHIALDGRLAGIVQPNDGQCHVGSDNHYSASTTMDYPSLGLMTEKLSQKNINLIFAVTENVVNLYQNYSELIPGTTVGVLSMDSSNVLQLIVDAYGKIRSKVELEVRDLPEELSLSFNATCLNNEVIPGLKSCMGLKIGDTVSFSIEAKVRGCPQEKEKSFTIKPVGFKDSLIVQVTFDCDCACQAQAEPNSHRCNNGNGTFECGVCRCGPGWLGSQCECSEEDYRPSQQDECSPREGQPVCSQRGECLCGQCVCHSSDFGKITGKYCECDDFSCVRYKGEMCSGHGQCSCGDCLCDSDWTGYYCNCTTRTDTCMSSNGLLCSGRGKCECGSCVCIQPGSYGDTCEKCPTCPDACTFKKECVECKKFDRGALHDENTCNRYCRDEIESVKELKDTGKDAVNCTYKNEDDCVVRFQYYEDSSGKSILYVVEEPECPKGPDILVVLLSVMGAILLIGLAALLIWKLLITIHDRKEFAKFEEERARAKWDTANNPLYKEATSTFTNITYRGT
row,Compound,IC50
1,O=C(O)CCCN1C(=O)CC2(CC(CCCC3CCNCC3)=NO2)C1=O (stereo not shown) [Example 373],10 to 50 µM

# Target: human platelet rich plasma (Homo sapiens, UniProt P05106+P08514)
# Assay: Platelet Aggregation Assay, ester prodrugs preincubated with porcine liver esterase
# Format: cell-based
# Settings: platelet rich plasma (PRP)
# Protocol: Aliquots are then diluted in 0.1 M Tris, pH 7.4, to the desired concentrations. Aliquots of 20 µl of the esterase pretreated prodrugs are added to 200 µl of human platelet rich plasma. […] Platelet aggregation was allowed to proceed for 5 minutes. Percent inhibition is calculated using percent aggregation in the presence of the test compound divided by percent aggregation of control, times 100. This value is subtracted from 100, yielding percent inhibition. Calculation of IC50 is performed on a Texas Instruments TI59 with an IC50 program.
# Sequence of human platelet rich plasma (P08514 with tags, fused parts or gaps): as the sequence (P08514 with tags, fused parts or gaps) above
# Sequence of human platelet rich plasma (P05106 27-788): as the sequence (P05106 27-788) above
row,Compound,IC50
1,COC(=O)C(CNC(=O)CC1CC(c2ccc(C(=N)N)cc2)=NO1)NC(=O)c1ccc(-c2ccccc2)cc1 (stereo not shown) [Example 523],< 10 µM
2,"Methyl N^2-(n-butyloxycarbonyl)-N^3-[3-(2-amidinopyrid-5-yl) isoxazolin-5-ylacetyl]-S-2,3-diaminopropionate bis hydrochloric acid salt [Example 515]",< 10 µM
3,"Methyl N^2-(m-toluenesulfonyl)-N^3-[3-(2-amidinopyrid-5-yl)isoxazolin-5-ylacetyl]-S-2,3-diaminopropionate bis hydrochloric acid salt [Example 516]",< 10 µM
4,"Methyl N^2-(m-toluenesulfonyl)-N^3-[3-(3-amidinopyrid-6-yl)isoxazolin-5-ylacetyl]-S-2,3-diaminopropionate bis hydrochloric acid salt [Example 514]",< 10 µM
5,COC(=O)C(CNC(=O)CC1CC(c2ccc(C(=N)N)cc2)=NO1)NS(=O)(=O)c1ccc(-c2ccccc2)cc1 (stereo not shown) [Example 546],< 10 µM
6,"Methyl N^2-(n-butyloxycarbonyl)-N^3-[3-(3-amidinopyrid-6-yl) isoxazolin-5-ylacetyl]-S-2,3-diaminopropionate bis hydrochloric acid salt [Example 513]",< 10 µM
